How the values were obtained:
[1] = test system: IL-6 release from keratinocytes; test: ATP-induced IL-6 release from keratinocytes (ELISA); type: cell-based, human
Procedure: (§1) Commercially available keratinocytes (Kurabo) were cultured in KGM-2 medium (Kurabo) according to the manufacturer's manual. The cells were seeded in a 12-well plate at 1.5×10^5 cells/well.
(§2) The medium in the 12-well plate was discarded on the day after seeding of the cells, and 24 hours after adding 2 ml of test solution dissolved in fresh medium, the culture supernatants were collected. The IL-6, IL-8, IL-1α and TNF concentrations in the recovered supernatants were measured using a commercially available ELISA kit (R&D Systems, USA).
ATP (10 μM-1 mM) dissolved in the culture medium was applied as test solution to keratinocytes, and after 24 hours the culture supernatants were collected and the inflammatory cytokine IL-6 was assayed with the ELISA kit.

[2] = test system: IL-8 release from keratinocytes; test: ATP-induced IL-8 release from keratinocytes (ELISA); type: cell-based, human
Procedure: as §1, §2
ATP (10 μM-1 mM) dissolved in the culture medium was applied as a test solution to keratinocytes, and after 24 hours the culture supernatants were recovered and the inflammatory cytokine IL-8 was assayed with an ELISA kit.

[3] = test system: IL-1α release from keratinocytes; test: ATP-induced IL-1α release from keratinocytes (ELISA); type: cell-based, human
Procedure: as §1, §2
ATP (10 μM-1 mM) dissolved in the culture medium was applied as a test solution to keratinocytes, and after 24 hours the culture supernatants were collected and the inflammatory cytokine IL-1α was assayed with an ELISA kit.

[4] = test system: TNFα release from keratinocytes; test: ATP-induced TNFα release from keratinocytes (ELISA); type: cell-based, human
Procedure: as §1, §2
ATP (10 μM-1 mM) dissolved in the culture medium was applied as a test solution to keratinocytes, and after 24 hours the culture supernatants were recovered and the inflammatory cytokine TNFα was assayed with an ELISA kit.

[5] = test system: IL-6 gene expression in keratinocytes; test: IL-6 gene expression in keratinocytes (Taqman RT-PCR); type: cell-based, human; details: Taqman-PCR normalized to GAPDH
Procedure: as §1
(§3) Keratinocytes were treated with the test solution and cells treated for 6 hours were used. Total RNA was extracted from the cells by addition of ISOGEN (Nippon Gene) according to the manufacturer's manual. cDNA was prepared with M-MLV reverse transcriptase (Life Technologies, Rockville USA), using 1 μg of RNA as template.
(§4) The gene sequence of the obtained cDNA was determined quantitatively by Taqman-PCR using an ABI PRISM 7700 Sequence Detector (Perkin Elmer) according to the manufacturer's manual, in the manner described in paragraph 11 of Japanese Unexamined Patent Publication (Kokai) No. 11-32799. The result was normalized on the basis of the expression level of human GAPDH (glyceraldehyde-3-phosphate dehydrogenase) used as an internal standard.

[6] = test system: IL-8 gene expression in keratinocytes; test: IL-8 gene expression in keratinocytes (Taqman RT-PCR); type: cell-based, human; details: Taqman-PCR normalized to GAPDH
Procedure: as §1, §3, §4

[7] = test system: IL-6 release in ultraviolet irradiated keratinocytes; test: Release of cytokine IL-6 in ultraviolet irradiated keratinocytes (ELISA); type: cell-based, human
Procedure: as §1, §2
(§5) After discarding the medium, PBS(−) was added and UVB was irradiated at 30 or 60 mJ/cm^2. Following the irradiation, the PBS(−) was discarded, 2 ml of the medium or test solution dissolved in the medium was added, and the culture supernatants were collected after 24 hours.
Cells were exposed to ultraviolet irradiation. After 24 h, keratinocyte cell supernatants were collected and the content of IL-6 was assayed with an ELISA kit.

[8] = test system: IL-8 release in ultraviolet irradiated keratinocytes; test: Release of cytokine IL-8 in ultraviolet irradiated keratinocytes (ELISA); type: cell-based, human
Procedure: as §1, §2, §5
Cells were exposed to ultraviolet irradiation. After 24 h, keratinocyte cell supernatants were collected and the content of IL-8 was assayed with an ELISA kit.

HR-1 mice = test: Confirmation test for inflammation suppressing effect: acetone barrier disruption in a dry environment, HE staining of dorsal skin; type: in vivo; details: dry environment (<10% RH), acetone-treated dorsal skin, coating with 1 mM Reactive blue 2, skin collected after 48 hours, control water
Procedure: After raising HR-1 mice for 48 hours in a dry environment (<10% RH), the dorsal skin was acetone-treated to disrupt its skin barrier function, and then the skin was applied with 1 mM Reactive blue 2. Control animals were applied with water. After an additional 48 hours, the dorsal skins of both animal groups were collected. The skin tissue was fixed with formaldehyde and subjected to hematoxylin-eosin (HE) staining and observed under an optical microscope.

[9] = ATP 10 μM-1 mM, 24 hours, ELISA, in proportion to ATP concentration
[10] = ATP 10 μM-1 mM, 24 hours, ELISA, in proportion to concentration
[11] = ATP 30-1000 μM, concentration-dependent
[12] = keratinocytes pretreated with 30-100 μM Reactive blue 2, ATP added 10 minutes later, supernatant after 24 hours, ELISA
[13] = keratinocytes pretreated with 100 μM Reactive blue 2, ATP added 10 minutes later, supernatant after 24 hours, ELISA
[14] = Reactive blue 2 100 μM, cells treated 6 hours
[15] = UVB irradiation 10 minutes after pretreatment with 100 μM Reactive blue 2, supernatant after 24 h, ELISA
[16] = pretreatment of the cells with suramin, data not shown

Nc1ncnc2c1ncn2[C@@H]1O[C@H](COP(=O)(O)OP(=O)(O)OP(=O)(O)O)[C@@H](O)[C@H]1O [ATP, adenosine triphosphate]
significantly increased: IL-6 expression over non-stimulated cells (controls) [5, 11] | IL-8 expression over non-stimulated cells (controls) [6, 11]
significant increase: IL-6 in culture supernatant after addition of ATP [1, 9] | IL-8 in culture supernatant after addition of ATP [2, 9] | IL-1α in culture supernatant after addition of ATP [3, 10] | TNFα in culture supernatant after addition of ATP [4, 10]

Nc1c(S(=O)(=O)O)cc(Nc2ccc(Nc3nc(Cl)nc(Nc4cccc(S(=O)(=O)O)c4)n3)c(S(=O)(=O)O)c2)c2c1C(=O)c1ccccc1C2=O [Reactive blue 2]
inhibits the epidermal hyperplasia: epidermal hyperplasia after barrier disruption (HE staining) (HR-1 mice)
significantly inhibited: ATP-induced increase in IL-6 [1, 12] | ATP-induced increase in IL-8 [2, 12] | ATP-induced increase in IL-1α [3, 13] | ATP-induced increase in TNFα [4, 13] | ATP-induced increase in IL-6 gene expression [5, 14] | ATP-induced increase in IL-8 gene expression [6, 14] | ultraviolet irradiation-induced increase in IL-6 [7, 15] | ultraviolet irradiation-induced increase in IL-8 [8, 15]

Cc1ccc(C(=O)Nc2ccc(S(=O)(=O)O)c3cc(S(=O)(=O)O)cc(S(=O)(=O)O)c23)cc1NC(=O)c1cccc(NC(=O)Nc2cccc(C(=O)Nc3cc(C(=O)Nc4ccc(S(=O)(=O)O)c5cc(S(=O)(=O)O)cc(S(=O)(=O)O)c45)ccc3C)c2)c1 [suramin]
similarly inhibited: increase in IL-6 release produced by ATP addition [1, 16] | increase in IL-8 release produced by ATP addition [2, 16] | increase in IL-1α release produced by ATP addition [3, 16] | increase in TNFα release produced by ATP addition [4, 16] | increase in IL-6 release produced by ultraviolet irradiation [7, 16] | increase in IL-8 release produced by ultraviolet irradiation [8, 16]

Reference: patent US20050209201A1, “Method and composition for suppression of inflammation” (Shiseido Co., Ltd., priority 2004, published 2005)
